US7858621B2 (Amorepacific Corporation, priority 2006, dated 2010)

Target: T1, vanilloid receptor (Rattus norvegicus, UniProt O35433)
T1 construct: DRG nerve cells from the primary culture of 2 days were equilibrated; endogenous in cells; host or cells: primary culture of dorsal root ganglion neurons from neonatal SD rats
Experiment: 45Ca influx test in cultured neonatal rat DRG neurons, inhibition of capsaicin response
Format: cell-based
Settings: neonatal rat DRG neurons, capsaicin 0.5 μM, 45Ca influx; read-out: Antagonist Calcium Uptake Test (IC50)
Experimental: 1) Separation of Spinal Dorsal Root Ganglia (DRG) in Newborn Rats and Primary Culture Thereof
Neonatal (2-3 day old or younger than 2-3 day old) SD rats were put in ice for 5 minutes to anesthetize and disinfected with 70% ethanol. […] The DRG were incubated sequentially at 37° C. for 30 mins in 200 U/ml collagenase and 2.5 mg/ml trypsin, separately. The ganglia were washed twice with DME/F12 medium supplemented with 10% horse serum, triturated through a fire-polished Pasteur pipette, filtered through Nitex 80 membrane to obtain single cell suspension and the suspension was washed once more. This was subjected to centrifugation, then resuspended in cell culture medium at certain level of cell density. As the cell culture medium, DME/F12 medium supplemented with 10% horse serum was diluted with identical medium conditioned by C6 glioma cells 2 days on a confluent monolayer (1:1), and NGF (Nerve Growth Factor) was added to adjust 200 ng/ml as final concentration. After the cells were grown 2 days in medium where cytosine arabinoside (Ara-C, 100 μM) was added to kill dividing nonneuronal cells, medium was changed to one without Ara-C. The resuspended cells were plated at a density of 1500-2000 neurons/well onto Terasaki plates previously coated with 10 μg/ml poly-D-ornithine.
2) ^45Ca Influx Experiments
DRG nerve cells from the primary culture of 2 days were equilibrated by washing 4 times with HEPES (10 mM, pH 7.4)-buffered Ca^2+, Mg^2+-free HBSS (H-HBSS). The solution in each well was removed from the individual well. Medium containing the test compound plus capsaicin (final concentration 0.5 μM) and ^45Ca (final concentration 10 μCi/ml) in H-HBSS was added to each well and incubated at room temperature for 10 mins. Terasaki plates were washed five times with H-HBSS and dried at room temperature. To each well, 0.3% SDS (10 μl) was added to elute ^45Ca. After the addition of scintillation cocktail of into each well, the amount of ^45Ca influx into neuron was measured by counting radioactivity.

T1 sequence (O35433 whole entry): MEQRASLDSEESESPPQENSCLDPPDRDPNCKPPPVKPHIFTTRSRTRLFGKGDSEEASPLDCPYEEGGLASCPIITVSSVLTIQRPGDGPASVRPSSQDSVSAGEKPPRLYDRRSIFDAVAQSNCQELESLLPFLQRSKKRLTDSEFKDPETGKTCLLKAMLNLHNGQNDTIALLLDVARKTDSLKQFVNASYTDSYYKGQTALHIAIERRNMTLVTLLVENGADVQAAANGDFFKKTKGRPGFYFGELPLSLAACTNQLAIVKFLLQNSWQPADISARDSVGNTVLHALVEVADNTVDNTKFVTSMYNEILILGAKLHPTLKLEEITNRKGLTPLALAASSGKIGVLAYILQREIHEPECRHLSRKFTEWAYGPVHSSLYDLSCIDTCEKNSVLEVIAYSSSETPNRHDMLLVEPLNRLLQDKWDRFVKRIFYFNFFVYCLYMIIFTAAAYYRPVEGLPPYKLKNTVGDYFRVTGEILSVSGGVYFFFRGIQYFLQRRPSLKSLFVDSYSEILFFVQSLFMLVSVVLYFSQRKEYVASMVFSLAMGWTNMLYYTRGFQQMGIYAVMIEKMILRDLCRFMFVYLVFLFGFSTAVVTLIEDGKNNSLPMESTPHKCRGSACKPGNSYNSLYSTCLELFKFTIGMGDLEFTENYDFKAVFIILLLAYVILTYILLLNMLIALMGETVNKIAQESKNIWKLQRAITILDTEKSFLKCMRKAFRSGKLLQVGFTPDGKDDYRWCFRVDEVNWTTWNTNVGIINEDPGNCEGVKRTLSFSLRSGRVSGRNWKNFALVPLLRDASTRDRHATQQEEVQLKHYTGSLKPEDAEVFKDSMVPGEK

SMILES	IC50
CS(=O)(=O)Nc1ccc(CNC(=O)/C=C/c2ccc(C(F)(F)F)nc2Oc2ccccc2)cc1F [Example 132, N-(3-Fluoro-4-methanesulfonylamino-benzyl)-3-(2-phenoxy-6-trifluoromethyl-pyridin-3-yl)-acrylamide]	> 3000 nM
CCCCOc1nc(C(F)(F)F)ccc1/C=C/C(=O)NCc1cc(F)c(NS(C)(=O)=O)c(C#N)c1 [Example 98, 3-(2-Butoxy-6-trifluoromethyl-pyridin-3-yl)-N-(3-cyano-5-fluoro-4-methanesulfonylamino-benzyl)-acrylamide]	190 nM
Cc1cc(CNC(=O)/C=C/c2ccc(C(F)(F)F)nc2-c2cccc(F)c2)cc(F)c1NS(C)(=O)=O [Example 180, N-(3-Fluoro-4-methanesulfonylamino-5-methyl-benzyl)-3-[2-(3-fluoro-phenyl)-6-trifluoromethyl-pyridin-3-yl]-acrylamide]	460 nM
C#Cc1cc(CNC(=O)C=Cc2ccc(C(F)(F)F)nc2C#C)cc(F)c1NS(C)(=O)=O [Example 145, N-(3-Ethynyl-5-fluoro-4-methanesulfonylamino-benzyl)-3-(2-ethynyl-6-trifluoromethyl-pyridin-3-yl)-acrylamide]	1900 nM
CS(=O)(=O)Nc1ccc(CNC(=O)/C=C/c2ccc(C(F)(F)F)nc2N2CCC(O)C2)cc1F (stereo not drawn) [Example 56, N-(3-Fluoro-4-methanesulfonylamino-benzyl)-3-[2-(3-hydroxy-pyrrolidin-1-yl)-6-trifluoromethyl-pyridin-3-yl]-acrylamide]	> 10000 nM
CS(=O)(=O)Nc1c(F)cc(CNC(=O)/C=C/c2ccc(C(F)(F)F)nc2N2CCOCC2)cc1C(F)(F)F [Examples 22]	3300 nM
C#Cc1cc(CNC(=O)/C=C/c2ccc(C(F)(F)F)nc2OCC(C)C)cc(F)c1NS(C)(=O)=O [Example 74, N-(3-Ethynyl-5-fluoro-4-methanesulfonylamino-benzyl)-3-(2-isobutoxy-6-trifluoromethyl-pyridin-3-yl)-acrylamide]	510 nM
CCCc1nc(C(F)(F)F)ccc1/C=C/C(=O)NCc1ccc(NS(C)(=O)=O)cc1 [Example 252, N-(4-Methanesulfonylamino-benzyl)-3-(2-propyl-6-trifluoromethyl-pyridin-3-yl)-acrylamide]	330 nM
C#Cc1cc(CNC(=O)/C=C/c2ccc(C(F)(F)F)nc2Cl)cc(F)c1NS(C)(=O)=O [Example 40, 3-(2-Chloro-6-trifluoromethyl-pyridin-3-yl)-N-(3-ethynyl-5-fluoro-4-methanesulfonylamino-benzyl)-acrylamide]	980 nM
CS(=O)(=O)Nc1ccc(CNC(=O)/C=C/c2ccc(Br)nc2)cc1F [Example 20, 3-(6-Bromo-pyridin-3-yl)-N-(3-fluoro-4-methanesulfonylamino-benzyl)-acrylamide]	> 10000 nM
C#Cc1cc(CNC(=O)/C=C/c2ccc(C(F)(F)F)nc2N2CCC[C@H]2C(=O)OCc2ccccc2)cc(F)c1NS(C)(=O)=O [Example 71, N-(3-Ethynyl-5-fluoro-4-methanesulfonylamino-benzyl)-3-[2-(2-benzyloxycarbonyl-pyrrolidin-1-yl)-6-trifluoromethyl-pyridin-3-yl]-acrylamide]	> 10000 nM
CC(C)(C)c1ccc(OCC(=O)NCc2ccc(NS(C)(=O)=O)c(F)c2)c(Cl)n1 [Example 30, 2-(6-tert-Butyl-2-chloro-pyridin-3-yloxy)-N-(3-fluoro-4-methanesulfonylamino-benzyl)-acetamide]	3800 nM
Cc1cc(CNC(=O)/C=C/c2ccc(C(F)(F)F)nc2NCc2ccccc2)ccc1NS(C)(=O)=O [Example 191, 3-(2-Benzylamino-6-trifluoromethyl-pyridin-3-yl)-N-(4-methanesulfonylamino-3-methyl-benzyl)-acrylamide]	220 nM
CCCSc1nc(C(F)(F)F)ccc1/C=C/C(=O)NCc1ccc(NS(C)(=O)=O)c(C)c1 [Example 186, N-(4-Methanesulfonylamino-3-methyl-benzyl)-3-(2-propylthio-6-trifluoromethyl-pyridin-3-yl)-acrylamide]	510 nM
CC(C)(C)c1ccc(/C=C/C(=O)NCc2ccc(NS(C)(=O)=O)c(Cl)c2)cn1 [Examples 2]	1300 nM
CCCCOc1nc(C(F)(F)F)ccc1/C=C/C(=O)NCc1ccc(NS(C)(=O)=O)c(F)c1 [Example 63, 3-(2-Butoxy-6-trifluoromethyl-pyridin-3-yl)-N-(3-fluoro-4-methanesulfonylamino-benzyl)-acrylamide]	560 nM
C#Cc1cc(CNC(=O)/C=C/c2ccc(C(F)(F)F)nc2Oc2cccnc2)cc(F)c1NS(C)(=O)=O [Example 134, N-(3-Ethynyl-5-fluoro-4-methanesulfonylamino-benzyl)-3-[2-(pyridin-3-yloxy)-6-trifluoromethyl-pyridin-3-yl]-acrylamide]	2600 nM
CCCN(C)c1nc(C(F)(F)F)ccc1/C=C/C(=O)NCc1ccc(NS(C)(=O)=O)c(F)c1 [Example 158, N-(3-Fluoro-4-methanesulfonylamino-benzyl)-3-[2-(N-methyl-N-propyl-amino)-6-trifluoromethyl-pyridin-3-yl]-acrylamide]	480 nM
CS(=O)(=O)Nc1ccc(CNC(=O)/C=C/c2cccnc2N2CCOCC2)cc1F [Example 50, N-(5-fluoro-4-methanesulfonylamino-benzyl)-3-(2-morpholin-4-yl-pyridin-3-yl)-acrylamide]	> 10000 nM
CC(C)(C)c1cc(C(F)(F)F)c(/C=C/C(=O)NCc2ccc(NS(C)(=O)=O)c(F)c2)cn1 [Example 17, 3-(6-tert-Butyl-4-trifluoromethyl-pyridin-3-yl)-N-(3-fluoro-4-methanesulfonylamino-benzyl)-acrylamide]	570 nM
CS(=O)(=O)Nc1ccc(CNC(=O)/C=C/c2ccc(C(F)(F)F)nc2)cc1F [Example 58, N-(3-Fluoro-4-methanesulfonylamino-benzyl)-3-(6-trifluoromethyl-pyridin-3-yl)-acrylamide]	> 10000 nM

The remaining lines, values ahead:

IC50	SMILES
35 nM	C#Cc1cc(CNC(=O)/C=C/c2ccc(C(F)(F)F)nc2CCc2ccccc2)cc(F)c1NS(C)(=O)=O [Example 142, N-(3-Ethynyl-5-fluoro-4-methanesulfonylamino-benzyl)-3-(2-phenethyl-6-trifluoromethyl-pyridin-3-yl)-acrylamide]
150 nM	CCCNc1nc(C(F)(F)F)ccc1/C=C/C(=O)NCc1ccc(NS(C)(=O)=O)c(Cl)c1 [Example 254, N-(3-Chloro-4-methanesulfonylamino-benzyl)-3-(2-propylamino-6-trifluoromethyl)-pyridin-3-yl-acrylamide]
25 nM	CC(C)c1nc(C(F)(F)F)ccc1/C=C/C(=O)N[C@H](C)c1cc(F)c(NS(C)(=O)=O)c(F)c1 [Example 242, (R)—N-[1-(3,5-Difluoro-4-methanesulfonylamino-phenyl)-ethyl]-3-(2-isopropyl-6-trifluoromethyl-pyridin-3-yl)-acrylamide]
110 nM	COCCNc1nc(C(F)(F)F)ccc1/C=C/C(=O)N[C@H](C)c1ccc(NS(C)(=O)=O)c(F)c1 [Example 212, (R)—N-[1-(3-Fluoro-4-methanesulfonylamino-phenyl)-ethyl]-3-[2-(2-methoxy-ethylamino)-6-trifluoromethyl-pyridin-3-yl]-acrylamide]
51 nM	C#Cc1cc(CNC(=O)/C=C/c2ccc(C(F)(F)F)nc2CC(C)C)cc(F)c1NS(C)(=O)=O [Example 148, N-(3-Ethynyl-5-fluoro-4-methanesulfonylamino-benzyl)-3-(2-isobutyl-6-trifluoromethyl-pyridin-3-yl)-acrylamide]
190 nM	CCNc1nc(C(F)(F)F)ccc1/C=C/C(=O)NCc1cc(F)c(NS(C)(=O)=O)c(C#N)c1 [Example 259, N-(3-Cyano-5-fluoro-4-methanesulfonylamino-benzyl)-3-(2-ethylamino-6-trifluoromethyl-pyridin-3-yl)-acrylamide]
69 nM	C#Cc1cc(CNC(=O)/C=C/c2ccc(C(F)(F)F)nc2N(C)c2ccccc2)cc(F)c1NS(C)(=O)=O [Example 166, N-(3-Ethynyl-5-fluoro-4-methanesulfonylamino-benzyl)-3-[2-(methyl-phenylamino)-6-trifluoromethyl-pyridin-3-yl]-acrylamide]
22 nM	CCC(C)Nc1nc(C(F)(F)F)ccc1/C=C/C(=O)N[C@H](C)c1ccc(NS(C)(=O)=O)c(F)c1 (stereo partly drawn) [Example 210, (R)-3-(2-sec-Butylamino-6-trifluoromethyl-pyridin-3-yl)-N-[1-(3-fluoro-4-methanesulfonylamino-phenyl)-ethyl]-acrylamide]
140 nM	CCCc1nc(C(F)(F)F)ccc1/C=C/C(=O)NCc1cc(F)c(NS(C)(=O)=O)c(F)c1 [Example 207, N-(3,5-Difluoro-4-methanesulfonylamino-benzyl)-3-(2-propyl-6-trifluoromethyl-pyridin-3-yl)-acrylamide]
